Columns and labels:
Human mTOR = biological target: T1, Human mTOR (Homo sapiens, UniProt P42345); assay: mTOR kinase assay (DELFIA format, purified enzyme); format: biochemical; details: His6-S6K substrate, read-out: TOR Kinase IC50
T1 construct: FLAG

MDA468 = assay: In vitro cell culture growth assay (MTS); format: cell-based; details: Homo sapiens, 72 h, breast line MDA468, three days after drug treatment
Experimental: In Vitro Cell Culture Growth Assay Methods:
Human tumor cell lines used include prostate lines LNCap and PC3MM2, breast lines MDA468, MCF7, renal line HTB44 (A498), colon line HCT116, and ovarian line OVCAR3. Cells were plated in 96-well culture plates. One day following plating, the inhibitors were added to cells. Three days after drug treatment, viable cell densities were determined by metabolic conversion (by viable cells) of the dye MTS, a well-established cell proliferation assay. The assays were performed using an assay kit purchased from Promega Corp. (Madison, Wis.) following the protocol supplied with the kit. The MTS assay results were read in a 96-well plate reader by measuring absorbance at 490 nm. The effect of each treatment was calculated as percent of control growth relative to the vehicle-treated cells grown in the same culture plate. The drug concentration that conferred 50% inhibition of growth was determined as IC50 (μg/ml).

PI3 Kinase α = PI3 Kinase α (Homo sapiens, UniProt P42336); assay: Fluorescence polarization assay for PI3K; format: biochemical
Sequence of PI3 Kinase α (P42336 whole entry): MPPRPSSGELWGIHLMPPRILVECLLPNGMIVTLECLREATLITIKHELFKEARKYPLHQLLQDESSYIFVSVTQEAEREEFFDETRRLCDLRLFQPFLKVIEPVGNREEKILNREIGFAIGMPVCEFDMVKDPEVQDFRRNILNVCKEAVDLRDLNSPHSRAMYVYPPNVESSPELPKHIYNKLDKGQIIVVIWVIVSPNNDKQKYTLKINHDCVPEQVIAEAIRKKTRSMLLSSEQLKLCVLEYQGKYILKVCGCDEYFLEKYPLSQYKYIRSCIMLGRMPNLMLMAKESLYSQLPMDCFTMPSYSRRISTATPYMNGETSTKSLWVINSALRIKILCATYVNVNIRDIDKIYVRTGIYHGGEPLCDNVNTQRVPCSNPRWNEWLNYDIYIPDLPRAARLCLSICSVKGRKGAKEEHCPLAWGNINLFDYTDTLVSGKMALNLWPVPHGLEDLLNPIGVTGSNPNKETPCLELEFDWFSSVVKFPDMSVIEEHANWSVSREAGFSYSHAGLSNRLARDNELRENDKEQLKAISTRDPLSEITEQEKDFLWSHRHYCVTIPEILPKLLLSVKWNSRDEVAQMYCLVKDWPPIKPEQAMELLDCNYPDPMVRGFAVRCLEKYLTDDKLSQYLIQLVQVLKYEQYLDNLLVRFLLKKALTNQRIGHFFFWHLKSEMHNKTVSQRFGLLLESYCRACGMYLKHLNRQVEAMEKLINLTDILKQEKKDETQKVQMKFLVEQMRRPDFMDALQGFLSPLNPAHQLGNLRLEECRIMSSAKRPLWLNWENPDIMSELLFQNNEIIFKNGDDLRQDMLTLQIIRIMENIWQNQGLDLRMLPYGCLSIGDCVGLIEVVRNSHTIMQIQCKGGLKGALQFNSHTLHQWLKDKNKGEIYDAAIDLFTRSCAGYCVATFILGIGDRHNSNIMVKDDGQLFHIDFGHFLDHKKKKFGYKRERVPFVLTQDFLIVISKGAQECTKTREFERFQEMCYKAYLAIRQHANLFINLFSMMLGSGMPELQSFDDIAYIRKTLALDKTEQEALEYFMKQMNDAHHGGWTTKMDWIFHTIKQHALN
Sequence of PI3 Kinase α (P27986 whole entry partner): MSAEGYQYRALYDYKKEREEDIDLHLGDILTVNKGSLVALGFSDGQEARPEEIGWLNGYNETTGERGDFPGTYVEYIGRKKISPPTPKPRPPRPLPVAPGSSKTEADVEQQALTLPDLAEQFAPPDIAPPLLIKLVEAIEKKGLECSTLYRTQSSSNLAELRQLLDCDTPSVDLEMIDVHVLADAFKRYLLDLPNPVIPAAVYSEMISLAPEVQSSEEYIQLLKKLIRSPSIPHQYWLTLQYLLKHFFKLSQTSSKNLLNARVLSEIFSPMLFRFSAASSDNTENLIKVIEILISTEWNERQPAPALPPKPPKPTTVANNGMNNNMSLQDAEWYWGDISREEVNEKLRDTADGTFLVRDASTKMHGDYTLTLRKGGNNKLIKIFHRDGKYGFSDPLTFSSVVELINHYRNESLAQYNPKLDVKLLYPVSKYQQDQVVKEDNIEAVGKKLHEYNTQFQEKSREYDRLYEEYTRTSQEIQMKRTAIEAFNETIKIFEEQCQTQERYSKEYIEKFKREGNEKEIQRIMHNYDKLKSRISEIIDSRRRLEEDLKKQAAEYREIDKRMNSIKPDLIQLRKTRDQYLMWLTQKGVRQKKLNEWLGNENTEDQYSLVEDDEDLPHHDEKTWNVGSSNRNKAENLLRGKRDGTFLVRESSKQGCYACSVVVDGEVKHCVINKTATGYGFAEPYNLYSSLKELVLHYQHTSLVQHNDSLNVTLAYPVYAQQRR

PI3 Kinase γ = PI3 Kinase γ (Homo sapiens, UniProt P48736); assay: Fluorescence polarization assay for PI3K; format: biochemical
Sequence of PI3 Kinase γ (P48736 whole entry): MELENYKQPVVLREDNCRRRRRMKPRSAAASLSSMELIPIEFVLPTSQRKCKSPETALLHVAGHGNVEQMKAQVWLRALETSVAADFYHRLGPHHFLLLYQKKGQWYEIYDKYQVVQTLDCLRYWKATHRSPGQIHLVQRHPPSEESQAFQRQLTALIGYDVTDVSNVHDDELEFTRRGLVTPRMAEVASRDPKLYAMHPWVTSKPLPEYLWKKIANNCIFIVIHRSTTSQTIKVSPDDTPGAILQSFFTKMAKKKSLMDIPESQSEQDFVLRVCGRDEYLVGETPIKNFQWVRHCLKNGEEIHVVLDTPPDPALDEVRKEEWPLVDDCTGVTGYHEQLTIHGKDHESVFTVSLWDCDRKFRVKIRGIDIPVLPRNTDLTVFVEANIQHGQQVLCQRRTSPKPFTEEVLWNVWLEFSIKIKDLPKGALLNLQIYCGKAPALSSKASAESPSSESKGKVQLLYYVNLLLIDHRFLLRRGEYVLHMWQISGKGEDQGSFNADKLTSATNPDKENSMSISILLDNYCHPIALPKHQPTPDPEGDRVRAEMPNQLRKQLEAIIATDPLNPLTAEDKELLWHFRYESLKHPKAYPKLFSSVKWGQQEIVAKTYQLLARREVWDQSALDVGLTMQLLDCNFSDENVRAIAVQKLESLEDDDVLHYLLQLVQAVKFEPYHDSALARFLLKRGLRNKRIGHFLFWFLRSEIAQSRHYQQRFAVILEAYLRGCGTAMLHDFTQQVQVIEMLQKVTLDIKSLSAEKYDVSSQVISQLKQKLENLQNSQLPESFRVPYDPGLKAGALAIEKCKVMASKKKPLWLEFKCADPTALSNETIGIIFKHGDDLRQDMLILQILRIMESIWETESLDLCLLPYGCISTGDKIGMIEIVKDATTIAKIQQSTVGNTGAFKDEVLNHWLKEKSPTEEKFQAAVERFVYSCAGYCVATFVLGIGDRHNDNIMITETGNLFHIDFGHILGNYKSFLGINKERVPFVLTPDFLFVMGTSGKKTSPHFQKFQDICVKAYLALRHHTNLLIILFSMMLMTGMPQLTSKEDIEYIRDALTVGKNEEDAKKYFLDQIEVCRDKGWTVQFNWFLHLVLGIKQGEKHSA

LNCap = assay: In vitro cell culture growth assay (MTS); format: cell-based; details: Homo sapiens, 72 h, prostate line LNCap, three days after drug treatment
[1] = system: acute lymphoblastic leukemia; details: NOS/SCID xenograft mouse model of acute lymphoblastic leukemia; cited from earlier work

IC50 (Human mTOR)	IC50 (PI3 Kinase α)	IC50 (PI3 Kinase γ)	IC50 (LNCap)	SMILES	IC50 (MDA468)	activity in xenograft model [1]
0.75 nM	66 nM	> 10000 nM	380 nM	O=C(Nc1ccc(-c2nc(C3=CCOCC3)c3cnn(CC(F)(F)F)c3n2)cc1)Nc1cccnc1 [Compound 8, 1-{4-[4-(3,6-dihydro-2H-pyran-4-yl)-1-(2,2,2-trifluoroethyl)-1H-pyrazolo[3,4-d]pyrimidin-6-yl]phenyl}-3-pyridin-3-ylurea]	7000 nM	
2.6 nM	43 nM	74 nM	96 nM	O=C(Nc1ccccc1)Nc1ccc(-c2nc(C3=CCOCC3)c3cnn(CC(F)(F)F)c3n2)cc1 [Compound 9, 1-{4-[4-(3,6-dihydro-2H-pyran-4-yl)-1-(2,2,2-trifluoroethyl)-1H-pyrazolo[3,4-d]pyrimidin-6-yl]phenyl}-3-phenylurea]	230 nM	
2.4 nM	851 nM	> 10000 nM	210 nM	CCNC(=O)Nc1ccc(-c2nc(C3=CCOCC3)c3cnn(CC(F)(F)F)c3n2)cc1 [Compound 10, 1-{4-[4-(3,6-dihydro-2H-pyran-4-yl)-1-(2,2,2-trifluoroethyl)-1H-pyrazolo[3,4-d]pyrimidin-6-yl]phenyl}-3-ethylurea]	680 nM	
3550 nM	696 nM	3360 nM	170 nM	O=C(Nc1ccc(-c2nc(C3=CCOCC3)c3cnn(CC(F)(F)F)c3n2)cc1)OCCO [Compound 10a, 2-hydroxyethyl {4-[4-(3,6-dihydro-2H-pyran-4-yl)-1-(2,2,2-trifluoroethyl)-1H-pyrazolo[3,4-d]pyrimidin-6-yl]phenyl}carbamate]	1200 nM	
				CO[C@H]1C[C@@H]2CC[C@@H](C)[C@@](O)(O2)C(=O)C(=O)N2CCCC[C@H]2C(=O)O[C@H]([C@H](C)C[C@@H]2CC[C@@H](OC(=O)C(C)(CO)CO)[C@H](OC)C2)CC(=O)[C@H](C)/C=C(\C)[C@@H](O)[C@@H](OC)C(=O)[C@H](C)C[C@H](C)/C=C/C=C/C=C/1C [Torisel]		active

From US20090192176A1, “1H-PYRAZOLO[3,4-D]PYRIMIDINE, PURINE, 7H-PURIN-8(9H)-ONE, 3H-[1,2,3]TRIAZOLO[4,5-D]PYRIMIDINE, AND THIENO[3,2-D]PYRIMIDINE COMPOUNDS, THEIR USE AS mTOR KINASE AND PI3 KINASE INHIBITORS, AND THEIR SYNTHESES” (Wyeth, priority 2008, published 2009)
